Measurements published in patent publication US20060063736A1, “Compositions and methods for inhibiting mucin-type O-linked glycosylation” (priority 2004, published 2006).

Assays:
mppGalNAcT-1 = molecular target: T1, mppGalNAcT-1 (Mus musculus, UniProt O08912); experiment: ELLA for ppGalNAcTs, mppGalNAcT-1; type: biochemical, murine; details: for IC50: ELLA, 20 μM UDP-GalNAc, 50 μM EA2 peptide 4; for mode of inhibition with respect to UDP-GalNAc: mppGalNAcT-1; for Ki: mppGalNAcT-1, with respect to UDP-GalNAc, read-out: KI versus UDP-GalNAc
T1 construct: plasmids encoding truncated secreted ppGalNAcTs-1 to −5, -7, -10 and -11; made in house; host or cells: COS-7
T1 sequence (O08912 29-559 limits assumed): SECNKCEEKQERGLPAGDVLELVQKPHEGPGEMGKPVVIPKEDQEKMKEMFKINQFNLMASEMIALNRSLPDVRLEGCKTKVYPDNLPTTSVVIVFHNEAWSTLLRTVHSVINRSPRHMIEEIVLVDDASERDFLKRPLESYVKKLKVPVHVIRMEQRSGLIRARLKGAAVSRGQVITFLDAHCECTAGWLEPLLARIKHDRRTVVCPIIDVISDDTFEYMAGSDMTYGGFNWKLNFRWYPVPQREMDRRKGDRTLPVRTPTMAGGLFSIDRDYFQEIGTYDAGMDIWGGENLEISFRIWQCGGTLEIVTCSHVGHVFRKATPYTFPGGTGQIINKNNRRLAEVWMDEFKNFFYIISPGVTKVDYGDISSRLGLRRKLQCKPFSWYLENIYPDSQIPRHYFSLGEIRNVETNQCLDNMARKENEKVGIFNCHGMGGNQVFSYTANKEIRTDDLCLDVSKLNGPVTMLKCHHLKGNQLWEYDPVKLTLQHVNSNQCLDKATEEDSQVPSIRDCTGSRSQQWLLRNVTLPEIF
Method: (§1) COS-7 cells were transiently transfected with plasmids encoding truncated secreted ppGalNAcTs-1 to −5, -7, -10 and -11 as previously described. Hagen et al. (1997) J. Biol. Chem. 272:13843-13848. The crude conditioned medium was used as the enzyme source.
Standard reaction conditions for ppGalNAcT assays were as follows. The reaction mixture contained the following components in a final volume of 25 μL: 10 mM MnCl2, 40 mM sodium cacodylate, 40 mM β-mercaptoethanol, 0.1% Triton X-100, pH 6.5, 5 μL of conditioned media, and various concentrations of EA2 peptide 4, UDP-GalNAc and inhibitor. All uridine-based compounds were dissolved in dimethyl sulfoxide (DMSO). The concentration of DMSO in the reaction mixture was limited to 2% (v/v), as higher concentrations decreased ppGalNAcT activity. For inhibitor assays, reaction mixtures for positive controls also contained 2% DMSO. Unless otherwise stated, inhibitor assays were performed using 20 μM UDP-GalNAc and 50 μM EA2 peptide 4, the KM values for both substrates. Reactions were incubated at 37° C. and were terminated by the addition of 10 μL of 0.1 M EDTA. All experiments were performed in duplicate. Reaction rates were linear over the period monitored (20-30 min).
96-Well NeutrAvidin-coated plates were prewashed 3 times with 200 μL of wash buffer (25 mM Tris, 150 mM NaCl, 0.1% bovine serum albumin (BSA) (w/v), and 0.05% Tween (v/v), pH 7.2). Reactions were then transferred to the 96-well plates, incubated for 1 hour at room temperature (rt) and subsequently washed 3 times with 200 μL of phosphate-buffered saline (PBS) containing 0.5% BSA and 0.05% Tween, pH 7.1. A 100-μL solution of HPA-HRP in standard PBS buffer (1 μg/mL, pH 7.4) was added and the reaction was incubated for 1 h at rt. After 3 washes with 200 μL of PBS, bound HPA-HRP was quantified by the addition of 100 μL of TMB peroxide solution. The solutions were incubated for 5-15 min in the dark at rt. HRP activity was terminated by the addition of 50 μL of 2 N H2SO4 and the resulting solution was analyzed at 450 nm using a UV/Vis microtiter plate reader. The amount of product generated by the ppGalNAcT was extrapolated from absorbance values using an equation fit to the standard curve derived from Origin 6.1 software.
In order to screen the library in high-throughput format, a non-radioactive enzyme linked lectin assay (ELLA) for ppGalNAcTs was developed. As an acceptor substrate, the EA2 peptide (PTTDSTTPAPTTK; SEQ ID NO:12), a fragment of rat submandibular mucin, was chosen. Albone et al. (1994) J. Biol. Chem. 269:16845-16852. This peptide has been previously shown to be an efficient substrate for murine (m) ppGalNAcT-1 and is preferentially glycosylated at the fourth Thr residue from the N-terminus (underlined). Ten Hagen et al. (2001, supra). Biotinylation of EA2 allowed capture of (glyco)peptides onto 96-well NeutrAvidin-coated plates. The GalNAc-modified glycopeptide product could be detected using the α-GalNAc-specific lectin Helix pomatia agglutinin (HPA) (Hammarstrom et al. (1977) Biochemistry 16:2750-2755) conjugated to horseradish peroxidase (HRP). The bound HRP was quantified by addition of a chromogenic substrate.

mppGalNAcT-4 = molecular target: T2, mppGalNAcT-4 (Mus musculus, UniProt O08832); experiment: ELLA for ppGalNAcTs, mppGalNAcT-4; type: biochemical, murine; details: 20 μM UDP-GalNAc, 50 μM EA2 peptide 4
T2 construct: plasmids encoding truncated secreted ppGalNAcTs-1 to −5, -7, -10 and -11; made in house; host or cells: COS-7
T2 sequence (O08832 36-578 limits assumed): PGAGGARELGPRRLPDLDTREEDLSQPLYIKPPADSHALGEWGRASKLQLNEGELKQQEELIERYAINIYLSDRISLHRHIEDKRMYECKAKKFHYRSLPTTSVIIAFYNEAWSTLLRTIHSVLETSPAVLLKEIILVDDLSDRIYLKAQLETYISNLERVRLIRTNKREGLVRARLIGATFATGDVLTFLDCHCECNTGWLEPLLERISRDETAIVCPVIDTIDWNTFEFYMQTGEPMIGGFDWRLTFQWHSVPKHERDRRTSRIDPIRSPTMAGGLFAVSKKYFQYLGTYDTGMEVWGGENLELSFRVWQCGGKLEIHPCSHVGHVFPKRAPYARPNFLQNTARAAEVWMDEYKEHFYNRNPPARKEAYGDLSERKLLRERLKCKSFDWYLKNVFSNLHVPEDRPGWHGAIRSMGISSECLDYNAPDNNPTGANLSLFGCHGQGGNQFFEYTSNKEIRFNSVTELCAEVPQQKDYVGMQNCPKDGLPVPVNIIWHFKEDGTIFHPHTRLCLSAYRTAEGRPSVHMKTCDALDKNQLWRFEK
Method: as §1
Standard reaction conditions for ppGalNAcT assays were as follows. The reaction mixture contained the following components in a final volume of 25 μL: 10 mM MnCl2, 40 mM sodium cacodylate, 40 mM β-mercaptoethanol, 0.1% Triton X-100, pH 6.5, 5 μL of conditioned media, and various concentrations of EA2 peptide 4, UDP-GalNAc and inhibitor. All uridine-based compounds were dissolved in dimethyl sulfoxide (DMSO). […] Reaction rates were linear over the period monitored (20-30 min).
96-Well NeutrAvidin-coated plates were prewashed 3 times with 200 μL of wash buffer (25 mM Tris, 150 mM NaCl, 0.1% bovine serum albumin (BSA) (w/v), and 0.05% Tween (v/v), pH 7.2). […] After 3 washes with 200 μL of PBS, bound HPA-HRP was quantified by the addition of 100 μL of TMB peroxide solution. […] HRP activity was terminated by the addition of 50 μL of 2 N H2SO4 and the resulting solution was analyzed at 450 nm using a UV/Vis microtiter plate reader. The amount of product generated by the ppGalNAcT was extrapolated from absorbance values using an equation fit to the standard curve derived from Origin 6.1 software.

O=c1ccn([C@@H]2O[C@H](CON=Cc3ccc(O)c(O)c3O)[C@@H](O)[C@H]2O)c(=O)[nH]1 [1-68A]
IC50 (mppGalNAcT-1): 21 ± 1 µM | mode of inhibition with respect to UDP-GalNAc (mppGalNAcT-1): competitive | Ki (mppGalNAcT-1): 7.8 ± 0.1 µM | IC50 (mppGalNAcT-4): 30 ± 5 µM

O=C(CON=Cc1ccc(O)c(O)c1O)NC[C@H]1O[C@@H](n2ccc(=O)[nH]c2=O)[C@H](O)[C@@H]1O [2-68A]
IC50 (mppGalNAcT-1): 24 ± 2 µM | mode of inhibition with respect to UDP-GalNAc (mppGalNAcT-1): competitive | Ki (mppGalNAcT-1): 7.8 ± 1 µM | IC50 (mppGalNAcT-4): 20 ± 5 µM
